# From patent publication US10377709B2, “Carboxamide derivatives and the use thereof as medicaments for the treatment of hepatitis B” (Janssen Sciences Ireland UC, priority 2013, dated 2019)
# Key:
# [1] = Cytotoxicity in HepG2 cells (Resazurin assay); type: cell-based; conditions: human, incubated 4 days, viability by Resazurin assay
# HBV [2] = experiment: Anti-HBV activity in HepG2.117 inducible HBV producing cell line (intracellular HBV DNA, realtime PCR); type: cell-based, Hepatitis B virus; conditions: HepG2.117 cells (Tet-off), 3 days of treatment, intracellular HBV DNA by realtime PCR
# HBV [3] = experiment: Anti-HBV activity in HepG2.2.15 stable transfected cell line (HBV DNA from secreted virions, realtime PCR); type: cell-based, Hepatitis B virus; conditions: HepG2.2.15 cells, 6 days of treatment, HBV DNA from secreted virions by realtime PCR
# [4] = Hepatitis B virus, HepG2.117, 72 h
# [5] = Hepatitis B virus, HepG2.2.15, 144 h
SMILES,CC50 at 4 days [1] [nM],EC50 (HBV [2]) [nM],EC50 (HBV [3]) [nM],EC50 (HBV [2]; [4]) [nM],EC50 (HBV [3]; [5]) [nM]
"Cc1cc(NC(=O)C2CC(C)N(C(=O)C(=O)NC3(C)COC3)C2)ccc1F (single isomer, unassigned) [Compound 17a, N-(4-fluoro-3-methylphenyl)-5-methyl-1-(2-((3-methyloxetan-3-yl)amino)-2-oxoacetyl)pyrrolidine-3-carboxamide]",> 25000,> 1000,> 1000,–,–
"CC(C)NC(=O)C(=O)N1CCC(C(=O)Nc2cc(F)c(F)c(Cl)c2)[C@@H]1C (single isomer, unassigned) [Compound 29a]",> 25000,11,10,–,–
"CC1C(C(=O)Nc2ccc(F)c(Cl)c2F)CCCN1C(=O)C(=O)N[C@H](C)C(F)(F)F (single isomer, unassigned) [Compound 35a]",> 25000,> 1000,> 1000,–,–
"C[C@@H](NC(=O)C(=O)N1CC[C@H](C(=O)Nc2cc(F)c(F)c(Br)c2)C1)C(F)(F)F [Compound 1, (S)-N-(3-bromo-4,5-difluorophenyl)-1-(2-oxo-2-(((R)-1,1,1-trifluoropropan-2-yl)amino)acetyl)pyrrolidine-3-carboxamide]",> 25000,–,–,18,20
"CC1(NC(=O)C(=O)N2CC[C@H](C(=O)Nc3cc(F)c(F)c(Br)c3)C2)COC1 [Compound 2, (S)-N-(3-bromo-4,5-difluorophenyl)-1-(2-((3-methyloxetan-3-yl)amino)-2-oxoacetyl)pyrrolidine-3-carboxamide]",> 25000,–,–,33,70
"CC(C)(C)NC(=O)C(=O)N1CC[C@H](C(=O)Nc2cc(F)c(F)c(Br)c2)C1 [Compound 3, (S)-N-(3-bromo-4,5-difluorophenyl)-1-(2-(tert-butylamino)-2-oxoacetyl)-pyrrolidine-3-carboxamide]",> 25000,–,–,26,141
"Cc1cc(NC(=O)[C@H]2CCN(C(=O)C(=O)NC(C)C)C2)ccc1F [Compound 4, (3S)-N-(4-Fluoro-3-methylphenyl)-1-{[(1-methylethyl)amino] (oxo)acetyl}-pyrrolidine-3-carboxamide]",> 25000,–,–,71,126
Cc1cc(NC(=O)[C@H]2CCN(C(=O)C(=O)NC3CCCC3)C2)ccc1F [Compound 5],> 25000,–,–,46,112
"Cc1cc(NC(=O)[C@H]2CCN(C(=O)C(=O)N[C@H](C)CO)C2)ccc1F [Compound 6, (S)-N-(4-fluoro-3-methylphenyl)-1-(2-(((R)-1-hydroxypropan-2-yl)amino)-2-oxoacetyl)pyrrolidine-3-carboxamide]",> 25000,–,–,257,301
"Cc1cc(NC(=O)[C@H]2CCN(C(=O)C(=O)NC3(C)COC3)C2)ccc1F [Compound 7, (3S)-N-(4-Fluoro-3-methylphenyl)-1-{[(3-methyloxetan-3-yl)amino]-(oxo)acetyl}pyrrolidine-3-carboxamide]",> 25000,–,–,117,67
"CC[C@@H](C)NC(=O)C(=O)N1CC[C@H](C(=O)Nc2ccc(F)c(C)c2)C1 [Compound 8, (3S)-N-(4-Fluoro-3-methylphenyl)-1-[{[(1R)-1-methylpropyl]amino}(oxo)acetyl]pyrrolidine-3-carboxamide]",> 25000,–,–,38,65
"Cc1cc(NC(=O)[C@H]2CCN(C(=O)C(=O)N[C@H]3CCOC3)C2)ccc1F [Compound 9, (3S)-N-(4-Fluoro-3-methylphenyl)-1-{oxo[(3S)-tetrahydrofuran-3-ylamino]-acetyl}pyrrolidine-3-carboxamide]",> 25000,–,–,134,120
"Cc1cc(NC(=O)[C@H]2CCN(C(=O)C(=O)NC3(C)COC3)[C@H]2C)ccc1F [Compound 10, (2S,3S)-N-(4-Fluoro-3-methylphenyl)-2-methyl-1-{[(3-methyloxetan-3-yl)-amino](oxo)acetyl}pyrrolidine-3-carboxamide]",> 25000,–,–,9,8
"C[C@@H](NC(=O)C(=O)N1CC[C@H](C(=O)Nc2cc(F)c(F)c(Cl)c2)C1)C(F)(F)F [Compound 11, (S)-N-(3-chloro-4,5-difluorophenyl)-1-(2-oxo-2-(((R)-1,1,1-trifluoropropan-2-yl)amino)acetyl)pyrrolidine-3-carboxamide]",> 25000,–,–,17,32
"Cc1cc(NC(=O)[C@H]2CCCN(C(=O)C(=O)NC(C)C)C2)ccc1F [Compound 12, (3S)-N-(4-Fluoro-3-methylphenyl)-1-{[(1-methylethyl)amino] (oxo)-acetyl}piperidine-3-carboxamide]",> 25000,–,–,115,321
"O=C(NC1(C(F)(F)F)CC1)C(=O)N1CC[C@H](C(=O)Nc2cc(F)c(F)c(Cl)c2)C1 [Compound 13, (S)-N-(3-chloro-4,5-difluorophenyl)-1-(2-oxo-2-((1-(trifluoromethyl)cyclopropyl)amino)acetyl)pyrrolidine-3-carboxamide]",> 25000,–,–,35,20
"C[C@@H](NC(=O)C(=O)N1CCC(C(=O)Nc2cc(F)c(F)c(Cl)c2)C1(C)C)C(F)(F)F (stereo partly drawn) [Compound 18, N-(3-chloro-4,5-difluoro-phenyl)-2,2-dimethyl-1-[2-oxo-2-[[(1R)-2,2,2-trifluoro-1-methyl-ethyl]amino]acetyl]pyrrolidine-3-carboxamide]",> 25000,–,–,670,–
"C[C@H]1[C@H](C(=O)Nc2cc(F)c(F)c(Cl)c2)CCN1C(=O)C(=O)N[C@H](C)C(F)(F)F [Compound 33a, (2S,3R)—N-(3-chloro-4,5-difluoro-phenyl)-2-methyl-1-[2-oxo-2-[[(1R)-2,2,2-trifluoro-1-methyl-ethyl]amino]acetyl]pyrrolidine-3-carboxamide]",> 25000,–,–,> 500,–
"C[C@H]1[C@@H](C(=O)Nc2cc(F)c(F)c(Cl)c2)CCN1C(=O)C(=O)N[C@H](C)C(F)(F)F [Compound 33b, (2S,3S)-N-(3-chloro-4,5-difluoro-phenyl)-2-methyl-1-[2-oxo-2-[[(1R)-2,2,2-trifluoro-1-methyl-ethyl]amino]acetyl]pyrrolidine-3-carboxamide]",> 25000,–,–,5,–
"C[C@H]1[C@H](C(=O)Nc2cc(F)c(F)c(F)c2)CCN1C(=O)C(=O)N[C@H](C)C(F)(F)F [Compound 34a, (2S,3R)-2-methyl-1-[2-oxo-2-[[(1R)-2,2,2-trifluoro-1-methyl-ethyl]amino]acetyl]-N-(3,4,5-trifluorophenyl)pyrrolidine-3-carboxamide]",> 25000,–,–,> 500,–
"C[C@H]1[C@@H](C(=O)Nc2cc(F)c(F)c(F)c2)CCN1C(=O)C(=O)N[C@H](C)C(F)(F)F [Compound 34b, (2S,3S)-2-methyl-1-[2-oxo-2-[[(1R)-2,2,2-trifluoro-1-methyl-ethyl]amino]acetyl]-N-(3,4,5-trifluorophenyl)pyrrolidine-3-carboxamide]",> 25000,–,–,4,–
